Source: US20240052133A1, “CHEMICAL RECYLING OF PLASTICS USING IONIC LIQUIDS OR DEEP EUTECTIC SOLVENTS” (THE REGENTS OF THE UNIVERSITY OF CALIFORNIA, priority 2022, published 2024)
Read-outs that look alike come from different tables or passages of the source.

Tests used:
[1] = test system: Pseudomonas putida KT2440; experiment: Pseudomonas putida KT2440 cell growth test (OD600) with different carbon sources; format: cell-based; conditions: for cell growth (cell concentration): synthetic solutions matching concentrations in the depolymerized polymers, versus 10 mM glucose control
Method: [38, 39, 44, 45]. […] This is likely due to the relatively high [Ch][Lys] concentration, where the [Ch][Lys] concentration is 4 wt %.
Due to the fact that the depolymerized PET/PLA comprises multiple carbon sources (e.g., TPA, LA, and [Ch][Lys]), it is essential to identify the major contributors for the cell growth. Two additional tests were performed. […] The depolymerized products were then diluted 20-fold to prepare the media for cell growth test. A media prepared with only [Ch][Lys] was used as the IL control.
To validate this hypothesis, a second cell growth test was conducted using synthetic TPA and LA as the media. TPA, LA, and TPA/LA mixture were prepared to match the concentrations in the depolymerized polymers. […] It can be concluded that Pseudomonas putida KT2440 is capable of catabolizing LA from depolymerized PLA and [Ch][Lys] as carbon sources, but lacks a natural metabolic pathway to consume TPA. So far, no natural terephthalate degradation pathway has been reported in Pseudomonas putida KT2440. This is consistent with our findings that TPA cannot support cell growth of Pseudomonas putida KT2440. A recent study has shown the success in engineering Pseudomonas putida KT2440 to catabolize TPA for different fermentation products. This opens the door to efficiently utilizing both TPA and LA from the depolymerized PET/PLA.
Pseudomonas putida KT2440 was inoculated as the seed culture at 30° C. overnight. The cell culture was spun down and washed with 3-(N-morpholino)propane sulfonic acid (MOPS) buffer for 5 times to remove the carbon sources. 1% cell resuspension was inoculated into 500 μL growth media in 48 well plates. The growth media included MOPS rich buffer (Teknova, #M2105) and 25 μg/mL Chloramphenicol, added with different carbon sources to support the cell growth (Table 4). Cell growths were monitored continuously at OD600 nm for 72-120 h in the plate reader (Biotek-Synergy, Y-H1) at 30° C., 570 rpm.

[2] = cited from earlier work
[3] = pH of the reaction solution before and after IL catalyzed depolymerization; format: physicochemical; conditions: for pH before reaction: IL systems 10 wt % in water, alkaline water adjusted with NaOH; for pH after reaction, PET: after depolymerization reaction of PET; for pH after reaction, PLA: after depolymerization reaction of PLA
Method: Hydrolytic depolymerization of PET and PLA involves chain scission of ester linkages, where a carboxyl end group is released. […] We hypothesized that the pH influenced by IL was the major driving force of PET and PLA depolymerization. To test the hypothesis, a set of control experiments were conducted using only water and alkaline water as the solvent. […] (with pH 11.8).

[4] = Hydrolytic depolymerization of PLA using ILs in water
Method: (§1) Most of them are conventional imidazolium-based, including the ones that contain halometallates. With the progress in the IL research, economic and biocompatible cholinium-based ILs have attracted high interest.
(§2) […] […] The tube was immersed in a preheated oil bath at a desired temperature. Upon completion of the reaction, the tube was taken out from the oil bath and cooled to room temperature.
(§3) The reaction residue was transferred to a 50 mL falcon tube, where solid residue was recovered through centrifugation. […] The liquid fraction was sampled for product analysis. The depolymerization and product yield are defined as follows:
(§4) Depolymerization=Wsubstrate−W1Wsubstrate100%
(§5) Yield=Wproduct/MproductWsubstrate/Msubstrate×100%
(§6) Then 4 mM sulfuric acid was used as the mobile phase at a flow rate of 1.0 mL/min. The column oven temperature was maintained at 65° C.

[5] = Depolymerization of PET/PLA mixtures (1:1 mass ratio) using [Ch][Lys]; conditions: 160° C.
Excerpt: As discussed previously, the current waste management facilities will not completely eliminate the PLA contamination when sorting PET for recycling. […] Chemical recycling is an alternative to mechanical recycling in regard to dealing with PLA contaminants. […] Given its high catalytic activity, [Ch][Lys] was selected as the IL in the reaction. It should be emphasized that [Ch][Lys] is a favorable choice not only because of its high depolymerization efficiency but also because it is economic, biocompatible, less toxic, and environmentally friendly.
The initial set of experiments was carried out at 160° C. for two hours. As shown in FIG. 4A and FIG. 4B, the depolymerization efficiency varied across different IL loadings. […] Meanwhile, the TPA yield turned to be negligible (1.5%) and the LA yield was merely 40.9%. The reasons are manifold.
Although [Ch][Lys] is considered as cost-competitive compared to other conventional ILs, IL usage is often the major cost contributor in the process economics. In order to explore the way to reduce IL loading, a set of experiments was conducted by increasing the reaction time from 2 h to 6 h. Overall, reaction time extension improved both depolymerization and product yields at low IL loadings (FIG. 4A, FIG. 4B and FIG. 4C). […].
The depolymerization reaction of polyesters were conducted in a 15 mL pressure tube (Ace Glass Inc., Vineland, NJ) at […] for one hour. […] The tube was immersed in a preheated oil bath at a desired temperature. Upon completion of the reaction, the tube was taken out from the oil bath and cooled to room temperature.
as §3, §4, §5
Terephthalic acid (TPA) and lactic acid (LA) were measured on a Thermo Scientific Ultimate 3000 HPLC (Waltham, MA, USA) equipped with a Bio-Rad Aminex HPX-87H column (300×7.8 mm, Hercules, CA, USA) and a Refractive Index (RI) detector. Then 4 mM sulfuric acid was used as the mobile phase at a flow rate of 1.0 mL/min. The column oven temperature was maintained at 65° C.

[6] = Hydrolytic depolymerization of PET using ILs in water
Method: as §1, §2
The reaction residue was transferred to a 50 mL falcon tube, where solid residue was recovered through centrifugation. The solid fraction was washed with 5 mL deionized water three times before being dried in a lyophilizer (Labconco, Kansas City, MO). The liquid fraction was sampled for product analysis. The depolymerization and product yield are defined as follows:
as §4, §5, §6

[7] = 130° C., 2 hours, 10% IL in water
[8] = 160° C., 20% [Ch][Lys] loading, 6 hours
[9] = 90 wt % IL loading (no water), 2 h
[10] = 180° C., 2 hours, 10% IL in water

SMILES: CC(O)C(=O)O (stereo not drawn) [LA, lactic acid]
- cell growth (cell concentration) [1]: higher than glucose control

SMILES: O=C(O)c1ccc(C(=O)O)cc1 [TPA, terephthalic acid]
- solubility in water ([2]; acidic pH): insoluble
- solubility in water ([2]; alkaline conditions): water soluble
- cell growth (cell concentration) [1]: No cell growth was observed

SMILES: O [Water]
- pH before reaction [3]: 7.6
- pH after reaction, PET [3]: 3.4
- pH after reaction, PLA [3]: 3.4

SMILES: C[N+](C)(C)CCO.C[N+](C)(C)CCO.C[N+](C)(C)CCO.O=P([O-])([O-])[O-] [[Ch]3[Phos], cholinium phosphate]
- pH before reaction [3]: 12.7
- pH after reaction, PET [3]: 7.7
- pH after reaction, PLA [3]: 8.1

SMILES: C[N+](C)(C)CCO.NCCCC[C@H](N)C(=O)[O-] [[Ch][Lys], cholinium lysinate]
- LA yield (product yield from PLA) [4, 7]: 39.3%
- depolymerization efficiency of PLA [4, 7]: 40.2%
- depolymerization of PLA [4, 8]: Up to 100%
- depolymerization efficiency of PET/PLA mixture ([5]; 10 wt % IL loading, 2 h): 50.8%
- LA yield from PET/PLA mixture ([5]; 45 wt % IL loading, 2 h): 93.8%
- TPA yield from PET/PLA mixture ([5]; 45 wt % IL loading, 2 h): 79.6%
- LA yield from PET/PLA mixture ([5]; 60 wt % IL loading, 2 h): 53.1%
- TPA yield from PET/PLA mixture ([5]; 60 wt % IL loading, 2 h): 77.2%
- depolymerization efficiency of PET/PLA mixture ([5]; 60 wt % IL loading, 2 h): 99.5%
- LA yield from PET/PLA mixture [5, 9]: 40.9%
- TPA yield from PET/PLA mixture [5, 9]: 1.5%
- depolymerization efficiency of PET/PLA mixture [5, 9]: 91.5%
- LA yield from PET/PLA mixture, change versus 2 h ([5]; 90 wt % IL loading, 6 h): decreased by half
- TPA yield from PET/PLA mixture ([5]; 90 wt % IL loading, 6 h): 1.6%
- depolymerization of PET/PLA mixture ([5]; 90 wt % IL loading, 6 h): 97.1%
- pH before reaction [3]: 11.8
- pH after reaction, PET [3]: 11.0
- pH after reaction, PLA [3]: 11.1
- depolymerization of PET [6, 8]: Up to 100%
- TPA yield (product yield from PET) [6, 10]: 44.5%
- depolymerization efficiency of PET [6, 10]: 52.7%
- cell growth ([1]; media prepared with only [Ch][Lys] (IL control)): contributor to the cell growth

SMILES: C[N+](C)(C)CCO.O=C([O-])[C@H](O)[C@@H](O)[C@H](O)[C@H](O)CO [[Cholinium][Gluconate], cholinium gluconate]
- TPA yield higher over [Ch][Lys] ([6]; another experiment, PET depolymerization): 100%

SMILES: CCn1cc[n+](C)c1.[Cl-] [[Emim]Cl, 1-ethyl-3-methylimidazolium chloride]
- pH before reaction [3]: 6.4
- pH after reaction, PET [3]: 4.5
- pH after reaction, PLA [3]: 3.2

SMILES: CC(=O)[O-].CCn1cc[n+](C)c1 [[Emim][Ac], 1-ethyl-3-methylimidazolium acetate]
- pH before reaction [3]: 7.1
- pH after reaction, PET [3]: 6.8
- pH after reaction, PLA [3]: 7.2
